Test results from patent US20050112573A1, “Method of detecting toxic substance” (priority 2001, published 2005).

Tested on: yeast genes (level of expressed mRNA)
Assay: DNA chip analysis of expressed mRNA of yeast genes after 2 h culture with a toxic chemical substance
Type: cell-based, Saccharomyces cerevisiae S288C
Conditions: for The level of expressed mRNA in the presence of chemical substance/ (ratio to absence of chemical substance): stress protein genes, DNA chip
Method: Yeast (Saccharomyces cerevtisiae S288C (α SUC2mal mel gap2 CUP1)) were cultured at 25° C. on YPD medium (yeast extract 1%, polypepton 2%, glucose 2%). One of toxic chemical substances was added to the cell at logarithmic growth phase, and the cell was further cultured for two hours. Cell was cultured without any chemical substance in the same condition, and was used as control. Concentrations of the chemical substances were defined to inhibit the growth of the yeast but not lead to death.
After the completion of cultivation, the culture was centrifuged to collect the cells. To the cells, sodium acetate buffer (50 mM sodium acetate, 10 mM EDTA, 1% SDS) was added, and the mixture was shaken at 65° C. for five minutes, followed by returning to room temperature, and obtaining the supernatant, which procedure was repeated two times. To the supernatant, ½ amount of a solution of phenol/chloroform was added, and the mixture was centrifuged to give a supernatant, which was added with an equal amount of chloroform, and the mixture was centrifuged to give a supernatant. To the supernatant, an equal amount of isopropanol containing 0.3 M sodium acetate was added, and the mixture was allowed to stand at room temperature for 30 minutes, after which the mixture was centrifuged to give a sediment of the whole RNAs. Seventy % ethanol was added to the sediment, and the mixture was again centrifuged to give a sediment, which was then dried and dissolved in water. mRNA was isolated from the whole RNAs as followings. In view of the fact that a poly A chain is attached to the 3′ terminus of mRNA, a polynucleotide having a poly T structure which was immobilized on the surface of latex beads was used to trap the mRNA, and then the mRNA was washed and eluted with spine column (Oligotex-dT30<Super>mRNA Purification Kit, Takara). Reverse transcription of the mRNA was conducted with a reverse transcriptase (Super Script II Reverse Transcriptase; catalogue No. 18064-014, GibcoBRL) using fluorescence-labeled nucleotides to give cDNAs that were introduced with Cy3-dUTP or Cy5-dUTP during the reverse transcription.
The labeled cDNAs were dissolved in TE buffer (10 mM Tris-HCl/1 mM EDTA, pH8.0), and the solution was dropped on the DNA chip containing the whole genes of yeast (DNA Chip Research Inc. Japan) so that the cDNAs were hybridized on the DNA chip at 65° C. for over 12 hours. The fluoresces intensity of the DNA chip was read with a scanner, and the ratio relative to the fluorescence intensity resulting from the absence of chemical substance was estimated as the following, which is shown in Tables 1 to 9: [formula]
In the Tables, “Intensity” indicated in the rightmost column is a value of the level of expressed mRNA of each gene in control cells as divided by the average level of the expressions of the whole genes.

With `CCCCCCCCCCCCOS(=O)(=O)[O-].[Na+]` [(18), sodium lauryl sulfate] the “The level of expressed mRNA in the presence of chemical substance/The level of expressed mRNA in the absence of chemical substance” value (yeast gene YIL140W) was 1.0, the “The level of expressed mRNA in the presence of chemical substance/ (in its absence), gene YJL070C” value (yeast gene YJL070C, ratio of DNA chip fluorescence intensity to that without chemical substance) was 1.2 and the “The level of expressed mRNA in the presence of chemical substance/The level of expressed mRNA in the absence of chemical substance” value (yeast gene YJL073W) was 1.0. The “The level of expressed mRNA in the presence of chemical substance/The level of expressed mRNA in the absence of chemical substance” value (yeast gene YJL089W) was 1.1, the “The level of expressed mRNA in the presence of chemical substance/ (ratio to absence), gene YJL096W” value (yeast gene YJL096W, mitochondria-located protein genes, 2 h culture with chemical) was 1.2 and the “The level of expressed mRNA in the presence of chemical substance/The level of expressed mRNA in the absence of chemical substance” value (yeast gene YJL116C) was 0.7. The “The level of expressed mRNA in the presence of chemical substance/ (ratio to absence of chemical substance)” value (yeast gene YJL158C) was 1.4, the “The level of expressed mRNA in the presence of chemical substance/ (in its absence), gene YJL167W” value (yeast gene YJL167W, ratio of DNA chip fluorescence intensity to that without chemical substance) was 2.1 and the “The level of expressed mRNA in the presence of chemical substance/ (ratio to absence), gene YJL180C” value (yeast gene YJL180C, mitochondria-located protein genes, 2 h culture with chemical) was 1.4. For the same compound, the “The level of expressed mRNA in the presence of chemical substance/ (in its absence), gene YJL216C” value (yeast gene YJL216C, ratio of DNA chip fluorescence intensity to that without chemical substance) was 2.0, the “The level of expressed mRNA in the presence of chemical substance/The level of expressed mRNA in the absence of chemical substance” value (yeast gene YJR004C) was 0.4 and the “The level of expressed mRNA in the presence of chemical substance/The level of expressed mRNA in the absence of chemical substance” value (yeast gene YJR086W) was 1.6. For the same compound, the “The level of expressed mRNA in the presence of chemical substance/ (ratio to absence of chemical substance)” value (yeast gene YJR090C) was 1.0, the “The level of expressed mRNA in the presence of chemical substance/The level of expressed mRNA in the absence of chemical substance” value (yeast gene YKL008C) was 1.9 and the “The level of expressed mRNA in the presence of chemical substance/The level of expressed mRNA in the absence of chemical substance” value (yeast gene YKL013C) was 1.7. For the same compound, the “The level of expressed mRNA in the presence of chemical substance/The level of expressed mRNA in the absence of chemical substance” value (yeast gene YKL039W) was 1.3, the “The level of expressed mRNA in the presence of chemical substance/The level of expressed mRNA in the absence of chemical substance” value (yeast gene YKL041W) was 1.3 and the “The level of expressed mRNA in the presence of chemical substance/The level of expressed mRNA in the absence of chemical substance” value (yeast gene YKL096W) was 0.7. The “The level of expressed mRNA in the presence of chemical substance/ (ratio to absence of chemical substance)” value (yeast gene YKL164C) was 0.8, the “The level of expressed mRNA in the presence of chemical substance/The level of expressed mRNA in the absence of chemical substance” value (yeast gene YKL165C) was 1.0 and the “The level of expressed mRNA in the presence of chemical substance/The level of expressed mRNA in the absence of chemical substance” value (yeast gene YKL193C) was 2.3. For the same compound, the “The level of expressed mRNA in the presence of chemical substance/ (in its absence), gene YKR009C” value (yeast gene YKR009C, ratio of DNA chip fluorescence intensity to that without chemical substance) was 2.5, the “The level of expressed mRNA in the presence of chemical substance/ (in its absence), gene YKR034W” value (yeast gene YKR034W, ratio of DNA chip fluorescence intensity to that without chemical substance) was 1.0 and the “The level of expressed mRNA in the presence of chemical substance/ (ratio to absence of chemical substance)” value (yeast gene YKR053C) was 2.4. The “The level of expressed mRNA in the presence of chemical substance/ in its absence, gene YKR058W” value (yeast gene YKR058W, energy system protein genes, 2 h culture with the chemical, ratio to control without chemical) was 1.6, the “The level of expressed mRNA in the presence of chemical substance/ (in its absence), gene YLR006C” value (yeast gene YLR006C, ratio of DNA chip fluorescence intensity to that without chemical substance) was 1.0 and the “The level of expressed mRNA in the presence of chemical substance/ (ratio to absence of chemical substance)” value (yeast gene YLR006C) was 1.0. For the same compound, the “The level of expressed mRNA in the presence of chemical substance/The level of expressed mRNA in the absence of chemical substance” value (yeast gene YLR120C) was 2.9, the “The level of expressed mRNA in the presence of chemical substance/The level of expressed mRNA in the absence of chemical substance” value (yeast gene YLR136C) was 1.4 and the “The level of expressed mRNA in the presence of chemical substance/The level of expressed mRNA in the absence of chemical substance” value (yeast gene YLR178C) was 3.6. For the same compound, the “The level of expressed mRNA in the presence of chemical substance/The level of expressed mRNA in the absence of chemical substance” value (yeast gene YLR250W) was 2.2, the “The level of expressed mRNA in the presence of chemical substance/ in its absence, gene YLR295C” value (yeast gene YLR295C, energy system protein genes, 2 h culture with the chemical, ratio to control without chemical) was 1.5 and the “The level of expressed mRNA in the presence of chemical substance/ (ratio to absence), gene YLR295C” value (yeast gene YLR295C, mitochondria-located protein genes, 2 h culture with chemical) was 1.5. For the same compound, the “The level of expressed mRNA in the presence of chemical substance/The level of expressed mRNA in the absence of chemical substance” value (yeast gene YLR327C) was 5.3, the “The level of expressed mRNA in the presence of chemical substance/ (in its absence), gene YLR351C” value (yeast gene YLR351C, ratio of DNA chip fluorescence intensity to that without chemical substance) was 1.8 and the “The level of expressed mRNA in the presence of chemical substance/The level of expressed mRNA in the absence of chemical substance” value (yeast gene YLR356W) was 1.0. For the same compound, the “The level of expressed mRNA in the presence of chemical substance/The level of expressed mRNA in the absence of chemical substance” value (yeast gene YLR362W) was 1.3, the “The level of expressed mRNA in the presence of chemical substance/ (in its absence), gene YLR375W” value (yeast gene YLR375W, ratio of DNA chip fluorescence intensity to that without chemical substance) was 1.0 and the “The level of expressed mRNA in the presence of chemical substance/The level of expressed mRNA in the absence of chemical substance” value (yeast gene YLR391W) was 0.9. For the same compound, the “The level of expressed mRNA in the presence of chemical substance/The level of expressed mRNA in the absence of chemical substance” value (yeast gene YLR429W) was 0.9, the “The level of expressed mRNA in the presence of chemical substance/ in its absence, gene YML129C” value (yeast gene YML129C, energy system protein genes, 2 h culture with the chemical, ratio to control without chemical) was 1.3 and the “The level of expressed mRNA in the presence of chemical substance/ (ratio to absence), gene YML129C” value (yeast gene YML129C, mitochondria-located protein genes, 2 h culture with chemical) was 1.3. The “The level of expressed mRNA in the presence of chemical substance/The level of expressed mRNA in the absence of chemical substance” value (yeast gene YMR004W) was 1.3, the “The level of expressed mRNA in the presence of chemical substance/ (ratio to absence), gene YMR023C” value (yeast gene YMR023C, mitochondria-located protein genes, 2 h culture with chemical) was 1.4 and the “The level of expressed mRNA in the presence of chemical substance/The level of expressed mRNA in the absence of chemical substance” value (yeast gene YMR094W) was 1.0. The “The level of expressed mRNA in the presence of chemical substance/The level of expressed mRNA in the absence of chemical substance” value (yeast gene YMR104C) was 1.9, the “The level of expressed mRNA in the presence of chemical substance/ (ratio to absence of chemical substance)” value (yeast gene YMR186W) was 1.1 and the “The level of expressed mRNA in the presence of chemical substance/The level of expressed mRNA in the absence of chemical substance” value (yeast gene YMR219W) was 0.9. The “The level of expressed mRNA in the presence of chemical substance/The level of expressed mRNA in the absence of chemical substance” value (yeast gene YMR226C) was 2.0, the “The level of expressed mRNA in the presence of chemical substance/ in its absence, gene YMR267W” value (yeast gene YMR267W, energy system protein genes, 2 h culture with the chemical, ratio to control without chemical) was 1.3 and the “The level of expressed mRNA in the presence of chemical substance/ (ratio to absence), gene YMR267W” value (yeast gene YMR267W, mitochondria-located protein genes, 2 h culture with chemical) was 1.3. The “The level of expressed mRNA in the presence of chemical substance/ in its absence, gene YMR267W” value (yeast gene YMR267W, ratio of DNA chip fluorescence intensity to that without chemical substance) was 1.3, the “The level of expressed mRNA in the presence of chemical substance/The level of expressed mRNA in the absence of chemical substance” value (yeast gene YMR275C) was 0.7 and the “The level of expressed mRNA in the presence of chemical substance/The level of expressed mRNA in the absence of chemical substance” value (yeast gene YMR276W) was 0.7. For the same compound, the “The level of expressed mRNA in the presence of chemical substance/ (in its absence), gene YMR278W” value (yeast gene YMR278W, ratio of DNA chip fluorescence intensity to that without chemical substance) was 1.5, the “The level of expressed mRNA in the presence of chemical substance/ (in its absence), gene YMR293C” value (yeast gene YMR293C, ratio of DNA chip fluorescence intensity to that without chemical substance) was 1.0 and the “The level of expressed mRNA in the presence of chemical substance/The level of expressed mRNA in the absence of chemical substance” value (yeast gene YMR314W) was 1.6.
